SMILES strings stand for the structures. pIC50: −log10 of the molar value.

These results are taken from patent US12187723B2 (BRISTOL-MYERS SQUIBB COMPANY, priority 2019, dated 2025).

The test concerns the target T1, human TLR9 (Homo sapiens, UniProt Q9NR96).
T1 construct: host or cells: HEK-Blue cells
T1 sequence (Q9NR96 26-1032): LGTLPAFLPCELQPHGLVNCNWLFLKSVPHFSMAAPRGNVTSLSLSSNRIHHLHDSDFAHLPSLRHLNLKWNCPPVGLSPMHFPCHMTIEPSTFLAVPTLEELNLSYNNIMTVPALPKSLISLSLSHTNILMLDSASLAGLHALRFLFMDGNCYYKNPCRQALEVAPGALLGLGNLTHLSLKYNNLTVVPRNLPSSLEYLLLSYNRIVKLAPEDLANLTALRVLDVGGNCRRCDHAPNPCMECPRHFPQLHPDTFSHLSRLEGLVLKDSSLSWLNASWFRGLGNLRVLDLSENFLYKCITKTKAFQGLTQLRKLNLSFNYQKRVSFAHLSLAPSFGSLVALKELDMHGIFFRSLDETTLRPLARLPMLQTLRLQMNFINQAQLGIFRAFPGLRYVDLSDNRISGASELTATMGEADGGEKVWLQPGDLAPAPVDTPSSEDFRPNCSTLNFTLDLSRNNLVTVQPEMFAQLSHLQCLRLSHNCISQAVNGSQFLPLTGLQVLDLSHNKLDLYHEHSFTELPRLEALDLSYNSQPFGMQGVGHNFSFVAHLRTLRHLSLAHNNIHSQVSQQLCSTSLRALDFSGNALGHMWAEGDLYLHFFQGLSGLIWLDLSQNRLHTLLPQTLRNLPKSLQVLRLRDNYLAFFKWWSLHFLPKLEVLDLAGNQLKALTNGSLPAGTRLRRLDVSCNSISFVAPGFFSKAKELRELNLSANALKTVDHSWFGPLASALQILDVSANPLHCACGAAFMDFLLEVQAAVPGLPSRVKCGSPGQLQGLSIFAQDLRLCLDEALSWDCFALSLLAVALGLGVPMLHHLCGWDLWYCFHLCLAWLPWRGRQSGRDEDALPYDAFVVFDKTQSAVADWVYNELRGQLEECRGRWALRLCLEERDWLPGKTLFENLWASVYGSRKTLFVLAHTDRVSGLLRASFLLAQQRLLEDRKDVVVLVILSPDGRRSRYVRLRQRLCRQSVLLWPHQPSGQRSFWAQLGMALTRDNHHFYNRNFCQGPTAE
The test can be described thus: TLR9 inhibition reporter assay (HEK-Blue SEAP). In kind it is cell-based. Conditions: HEK-Blue cells overexpressing human TLR9, ODN2006 5 nM, 22 hour incubation. The method in brief:
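Screening used HEK-Blue cells overexpressing one human TLR (7, 8 or 9) and an IFN-β minimal promoter–NF-κB/AP-1 SEAP construct. Stimulation lasted 22 h at 37 °C with receptor-specific agonist: gardiquimod, R848 or ODN2006 at 7.5 μM, 15.9 μM and 5 nM.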
As a reminder, the pIC50 is the negative decadic logarithm of the IC50, by convention in mol/L. A high value points to a low IC50. Consider `CCc1cc2c(cc1-c1cc(OC)c3ncnn3c1)[nH]c(=O)n2[C@H]1CC[C@@H](NC2CCOCC2)CC1` [Example 166, 6-ethyl-5-(8-methoxy-[1,2,4]triazolo[1,5-a]pyridin-6-yl)-1-((1s,4s)-4-((tetrahydro-2H-pyran-4-yl)amino)cyclohexyl)-1,3-dihydro-2H-benzo[d]imidazol-2-one], for which the pIC50 was 4.83.
For `Cc1cc2c(cc1-c1cc(C)c3ncnn3c1)[nH]c(=O)n2[C@@H]1CCCN(CC(N)=O)C1` [Example 94, (R)-2-(3-(6-methyl-5-(8-methyl-[1,2,4]triazolo[1,5-a]pyridin-6-yl)-2-oxo-2,3-dihydro-1H-benzo[d]imidazol-1-yl)piperidin-1-yl)acetamide] the value was under 4.30; for `COCCN1CCC[C@@H](n2c(=O)[nH]c3cc(-c4cc(C)c5ncnn5c4)c(C)cc32)C1` [Example 97, (R)-1-(1-(2-methoxyethyl)piperidin-3-yl)-6-methyl-5-(8-methyl-[1,2,4]triazolo[1,5-a]pyridin-6-yl)-1,3-dihydro-2H-benzo[d]imidazol-2-one], 4.72; for `COc1cc(-c2cc3[nH]c(=O)n([C@@H]4CCCN(CC(C)C)C4)c3cc2C(C)C)cn2ncnc12` [Example 141, (R)-1-(1-isobutylpiperidin-3-yl)-6-isopropyl-5-(8-methoxy-[1,2,4]triazolo[1,5-a]pyridin-6-yl)-1,3-dihydro-2H-benzo[d]imidazol-2-one], 5.41.
As for `Cc1cc2c(cc1-c1cc(C)c3ncnn3c1)[nH]c(=O)n2[C@H]1CCCN(C(=O)CN(C)C)C1` [Example 103, (S)-1-(1-(dimethylglycyl)piperidin-3-yl)-6-methyl-5-(8-methyl-[1,2,4]triazolo[1,5-a]pyridin-6-yl)-1,3-dihydro-2H-benzo[d]imidazol-2-one], the pIC50 was 5.33.
As for `COc1cc(-c2cc3[nH]c(=O)n([C@@H]4CCCN(CC(C)(C)C)C4)c3cc2C(C)C)cn2ncnc12` [Example 153, (R)-6-isopropyl-5-(8-methoxy-[1,2,4]triazolo[1,5-a]pyridin-6-yl)-1-(1-neopentylpiperidin-3-yl)-1,3-dihydro-2H-benzo[d]imidazol-2-one], the pIC50 was 4.88.
`COc1cc(-c2cc3[nH]c(=O)n(C4CCCN(C(=O)CN(C)C)C4)c3cc2C)cn2ncnc12` (centres unmarked) [Example 105, 1-(1-(dimethylglycyl)piperidin-3-yl)-5-(8-methoxy-[1,2,4]triazolo[1,5-a]pyridin-6-yl)-6-methyl-1,3-dihydro-2H-benzo[d]imidazol-2-one]: the pIC50 was 5.10.
Compound `COc1cc(-c2cc3[nH]c(=O)n([C@H]4CCCN(CCC(C)C)C4)c3cc2C(C)C)cn2ncnc12` [Example 132, (S)-1-(1-isopentylpiperidin-3-yl)-6-isopropyl-5-(8-methoxy-[1,2,4]triazolo[1,5-a]pyridin-6-yl)-1,3-dihydro-2H-benzo[d]imidazol-2-one] had a pIC50 of 4.96.
In the case of `COc1cc(-c2cc3[nH]c(=O)n(C4CCN(C(C)C)CC4)c3cc2C)cn2ncnc12` [Example 10, 1-(1-isopropylpiperidin-4-yl)-5-(8-methoxy-[1,2,4]triazolo[1,5-a]pyridin-6-yl)-6-methyl-1,3-dihydro-2H-benzo[d]imidazol-2-one] it was 6.45.
In the case of `COc1cc(-c2cc3[nH]c(=O)n(C4CCN(C5CCOCC5)CC4)c3cc2C(C)C)cn2ncnc12` [Example 158, 6-isopropyl-5-(8-methoxy-[1,2,4]triazolo[1,5-a]pyridin-6-yl)-1-(1-(tetrahydro-2H-pyran-4-yl)piperidin-4-yl)-1,3-dihydro-2H-benzo[d]imidazol-2-one], the pIC50 was 4.67.
In the case of `COc1cc(-c2cc3[nH]c(=O)n(C4CCN(C(=O)CN(C)C)CC4)c3cc2C)cn2ncnc12` [Example 100, 1-(1-(2-(dimethylamino)acetyl)piperidin-4-yl)-5-(8-methoxy-[1,2,4]triazolo[1,5-a]pyridin-6-yl)-6-methyl-1H-benzo[d]imidazol-2(3H)-one] it was 5.78.
In the case of `CCCN1CCC[C@H](n2c(=O)[nH]c3cc(-c4cc(OC)c5ncnn5c4)c(C(C)C)cc32)C1` [Example 121, (S)-6-isopropyl-5-(8-methoxy-[1,2,4]triazolo[1,5-a]pyridin-6-yl)-1-(1-propylpiperidin-3-yl)-1,3-dihydro-2H-benzo[d]imidazol-2-one] it was 4.87.
For `COc1cc(-c2cc3[nH]c(=O)n([C@@H]4CCCN(CC(C)(C)C)C4)c3cc2C(F)(F)F)cn2ncnc12` [Example 116, (R)-5-(8-methoxy-[1,2,4]triazolo[1,5-a]pyridin-6-yl)-1-(1-neopentylpiperidin-3-yl)-6-(trifluoromethyl)-1,3-dihydro-2H-benzo[d]imidazol-2-one] the value was 4.47.
In the case of `COc1cc(-c2cc3[nH]c(=O)n([C@@H]4CCCN(C5CCOCC5)C4)c3cc2C(C)C)cn2ncnc12` [Example 143, (R)-6-isopropyl-5-(8-methoxy-[1,2,4]triazolo[1,5-a]pyridin-6-yl)-1-(1-(tetrahydro-2H-pyran-4-yl)piperidin-3-yl)-1,3-dihydro-2H-benzo[d]imidazol-2-one], the negative-log IC50 (pIC50) is 4.99.
`Cc1c(-c2cc3[nH]c(=O)n([C@@H]4CCCN(C)C4)c3cc2C(C)C)cn2ncnc2c1C` [Example 147, (R)-5-(7,8-dimethyl-[1,2,4]triazolo[1,5-a]pyridin-6-yl)-6-isopropyl-1-(1-methylpiperidin-3-yl)-1,3-dihydro-2H-benzo[d]imidazol-2-one] had a negative-log IC50 (pIC50) of under 4.30.
For `Cc1cc2c(cc1-c1cc(C)c3ncnn3c1)[nH]c(=O)n2C1CCN(C)CC1` [Example 3, 6-methyl-5-(8-methyl-[1,2,4]triazolo[1,5-a]pyridin-6-yl)-1-(1-methylpiperidin-4-yl)-1,3-dihydro-2H-benzo[d]imidazol-2-one] the value was 5.33; for `Cc1c(-c2cc3[nH]c(=O)n([C@@H]4CCCN(C5COC5)C4)c3cc2C(C)C)cn2ncnc2c1C` [Example 146, (R)-5-(7,8-dimethyl-[1,2,4]triazolo[1,5-a]pyridin-6-yl)-6-isopropyl-1-(1-(oxetan-3-yl)piperidin-3-yl)-1,3-dihydro-2H-benzo[d]imidazol-2-one], under 4.30.
For `CCCN1CCC(n2c(=O)[nH]c3cc(-c4cc(C)c5ncnn5c4)c(C)cc32)CC1` [Example 7, 6-methyl-5-(8-methyl-[1,2,4]triazolo[1,5-a]pyridin-6-yl)-1-(1-propylpiperidin-4-yl)-1,3-dihydro-2H-benzo[d]imidazol-2-one] the value was 5.88; for `CCCN(CCC)[C@H]1CC[C@@H](n2c(=O)[nH]c3cc(-c4cc(OC)c5ncnn5c4)c(CC)cc32)CC1` [Example 168, 1-((1s,4s)-4-(dipropylamino)cyclohexyl)-6-ethyl-5-(8-methoxy-[1,2,4]triazolo[1,5-a]pyridin-6-yl)-1,3-dihydro-2H-benzo[d]imidazol-2-one], 4.82.
In the case of `COc1cc(-c2cc3[nH]c(=O)n(C4CCN(C)CC4)c3cc2C(C)C)cn2ncnc12` [Example 154, 6-isopropyl-5-(8-methoxy-[1,2,4]triazolo[1,5-a]pyridin-6-yl)-1-(1-methylpiperidin-4-yl)-1,3-dihydro-2H-benzo[d]imidazol-2-one] it was 4.63.
